# Experimental data published in PubChem BioAssay AID588468 (NMMLSC, 2011).
# Active and inactive are the calls of the source.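 How the source made its calls: active means compounds whose thermal stabilization response of the kinase is above zero; inactive means the rest.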
# Biological target: Beta-adrenergic receptor kinase 1 (Homo sapiens) (UniProt P25098)
# Experiment: ligand-induced GRK2 thermal stabilization – biophysical, Thermofluor, set 2, orthogonal assay for GRK2 aptamer-displacement inhibitor project, late-stage follow-up (AID 588468)
# Conditions: purified GRK2 thermal shift, ANS fluorescence; at 200 µM; stronger effect = higher value
# Chain of Beta-adrenergic receptor kinase 1 (Homo sapiens) (P25098 whole entry, looked up): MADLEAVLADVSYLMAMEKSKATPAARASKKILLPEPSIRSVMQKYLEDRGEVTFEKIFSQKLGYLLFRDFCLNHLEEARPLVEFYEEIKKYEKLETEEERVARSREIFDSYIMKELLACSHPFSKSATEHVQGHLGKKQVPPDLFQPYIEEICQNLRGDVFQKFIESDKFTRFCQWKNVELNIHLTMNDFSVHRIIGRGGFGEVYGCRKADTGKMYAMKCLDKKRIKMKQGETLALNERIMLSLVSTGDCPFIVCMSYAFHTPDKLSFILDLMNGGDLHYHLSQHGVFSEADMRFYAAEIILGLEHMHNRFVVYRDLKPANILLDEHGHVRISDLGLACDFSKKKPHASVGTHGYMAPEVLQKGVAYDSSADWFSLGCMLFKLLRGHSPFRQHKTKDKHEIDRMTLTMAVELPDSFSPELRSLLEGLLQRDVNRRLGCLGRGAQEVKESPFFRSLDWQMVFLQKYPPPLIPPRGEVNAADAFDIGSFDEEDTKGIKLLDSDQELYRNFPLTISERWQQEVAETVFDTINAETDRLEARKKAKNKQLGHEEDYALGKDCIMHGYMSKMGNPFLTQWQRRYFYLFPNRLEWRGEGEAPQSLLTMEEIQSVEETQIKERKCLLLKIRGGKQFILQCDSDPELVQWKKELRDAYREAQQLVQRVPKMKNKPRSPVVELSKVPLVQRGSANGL
row,thermal stabilization response,Structure (SMILES)
1,-601% (inactive),COc1ccc(Cl)cc1NC(=O)CCS(=O)(=O)c1ccc(Br)cc1
2,-62.8% (inactive),COC(=O)c1ccc(NC(=O)CCS(=O)(=O)c2ccc(Br)cc2)cc1
3,-85.1% (inactive),COc1ccc([N+](=O)[O-])cc1NC(=O)CCS(=O)(=O)c1ccc(Br)cc1
4,-127% (inactive),O=C(O)Cc1ccc(-n2cccc2)cc1
5,-116% (inactive),Cc1cc2ccccc2n1CCNC(=O)C(C)Oc1ccccc1 (stereo not drawn)
6,-152% (inactive),O=C(CCS(=O)(=O)c1ccc(Br)cc1)NCc1cccs1
7,116%,Cc1ccccc1NC(=O)CCS(=O)(=O)c1ccc(Br)s1
8,-107% (inactive),NS(=O)(=O)c1ccc(CCNC(=O)CCS(=O)(=O)c2ccc(Br)cc2)cc1
9,-62% (inactive),O=C(CSc1nc2ccccc2c(=O)n1-c1ccccc1)NC(=O)CN1CCCC1=O

# Second part, the compound before the results:
row,Structure (SMILES),thermal stabilization response
1,O=C(CCS(=O)(=O)c1ccc(Br)s1)Nc1ccccc1Br,-73.1% (inactive)
2,C#CCSc1nc2sc3c(c2c(=O)n1C)CCC3,21.3%
3,Cc1ccc(CCNC(=O)CCS(=O)(=O)c2ccc(Br)cc2)cc1,1.04%
4,COc1ccc(CCNC(=O)CCS(=O)(=O)c2ccc(Br)cc2)cc1OC,-74.6% (inactive)
5,O=C(CN1CCc2ccccc21)NC(=O)NCc1ccccc1,25.7%
6,O=C(CCS(=O)(=O)c1ccc(Br)cc1)Nc1ccc(Br)cc1F,-34.7% (inactive)
7,COc1ccc(NC(=O)CCS(=O)(=O)c2ccc(Br)s2)cc1,-93.6% (inactive)
8,Cc1cccc(CCNC(=O)CCS(=O)(=O)c2ccc(Br)cc2)c1,44.5%
9,CCN(CC)c1ccc(NC(=O)CCS(=O)(=O)c2ccc(Br)cc2)c(C)c1,72%
10,CC(=O)N1CCN(Cc2nc3cc(Cl)ccc3c(=O)[nH]2)CC1,-41.4% (inactive)
11,COC(=O)c1ccccc1NC(=O)CCS(=O)(=O)c1ccc(Br)s1,-184% (inactive)
12,CC(CS(=O)(=O)c1ccc2c(c1)NC(=O)CS2)C(=O)NCc1ccccc1Cl (stereo not drawn),-20.4% (inactive)
13,CCOc1ccccc1NC(=O)CCS(=O)(=O)c1ccc(Br)cc1,-16.1% (inactive)
14,CCOc1ccc(NC(=O)CCS(=O)(=O)c2ccc(Br)cc2)cc1,-25.9% (inactive)
